# Laboratory results published in patent US7022691B2, “Inhibitors of serine and metallo-β-lactamases” (priority 2002, dated 2006).
# Where a name gives a salt, the structure may show the parent alone. Read-outs that look alike come from different tables or passages of the source.
# How the values were obtained:
# class B β-lactamases = assay: Inhibition of class B β-lactamases, summary in words; format: biochemical; conditions: summary of Table 1 in words
# Method: (§1) Representative compounds of the invention were evaluated as inhibitors of two serine β-lactamases: Enterobacter cloacae P99 (class C), TEM-1 (class A), as well as two class B enzymes: the L1 metallo-β-lactamse derived from Stenotrophomonas maltophilia) and the metallo-β-lactamase derived from the Bacillus cereus microorganism. The IC50 value of each compound was determined as follows. Assay method involves 4 min incubation of a solution of inhibitor and enzyme (0.1 to 1 μM in enzyme), followed by transfer of an aliquot into a dilute solution of the substrate nitrocefin. Hydrolysis is monitored spectrophotometrically at 480 nm for 1 min. The rate is constant throughout this period. Error is ±10%, based on multiple experiments.
# [1] = target: L1 metallo-β-lactamase (class B) (Stenotrophomonas maltophilia, UniProt P52700); assay: Inhibition of L1 metallo-β-lactamase (nitrocefin hydrolysis); format: biochemical
# Sequence of L1 metallo-β-lactamase (class B) (P52700 34-290): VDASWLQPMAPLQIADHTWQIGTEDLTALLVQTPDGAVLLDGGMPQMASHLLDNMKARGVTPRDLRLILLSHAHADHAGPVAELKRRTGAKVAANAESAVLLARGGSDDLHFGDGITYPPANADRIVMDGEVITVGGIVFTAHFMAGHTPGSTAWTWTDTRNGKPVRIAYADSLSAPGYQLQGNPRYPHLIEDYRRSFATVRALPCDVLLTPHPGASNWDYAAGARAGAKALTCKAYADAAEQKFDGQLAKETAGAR
# Method: as §1
# [2] = target: Enterobacter cloacae P99 (class C) serine β-lactamase (Enterobacter cloacae, UniProt P05364); assay: biochemical
# Sequence of Enterobacter cloacae P99 (class C) serine β-lactamase (P05364 21-381): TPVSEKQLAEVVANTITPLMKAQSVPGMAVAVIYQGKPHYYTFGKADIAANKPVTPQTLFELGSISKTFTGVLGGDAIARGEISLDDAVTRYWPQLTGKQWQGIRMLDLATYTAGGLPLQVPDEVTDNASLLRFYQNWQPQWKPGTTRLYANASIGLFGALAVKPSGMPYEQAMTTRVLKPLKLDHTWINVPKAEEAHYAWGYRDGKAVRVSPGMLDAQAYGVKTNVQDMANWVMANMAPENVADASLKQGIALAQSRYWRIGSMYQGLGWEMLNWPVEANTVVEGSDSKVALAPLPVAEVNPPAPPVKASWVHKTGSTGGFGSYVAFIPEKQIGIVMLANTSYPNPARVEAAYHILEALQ
# Method: as §1, with “min.” for “min. The rate is constant throughout this period. Error is ±10%, based on multiple experiments.”
# [3] = target: BC1 metallo-β-lactamase (class B) (Bacillus cereus, UniProt P04190); assay: biochemical
# Sequence of BC1 metallo-β-lactamase (class B) (P04190 31-257): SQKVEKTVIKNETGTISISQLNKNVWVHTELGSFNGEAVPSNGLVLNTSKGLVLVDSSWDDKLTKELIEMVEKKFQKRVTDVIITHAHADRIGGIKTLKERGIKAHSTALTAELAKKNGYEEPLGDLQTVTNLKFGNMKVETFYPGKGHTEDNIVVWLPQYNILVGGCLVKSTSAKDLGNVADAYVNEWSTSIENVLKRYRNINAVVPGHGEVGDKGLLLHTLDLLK
# Method: as §1
# [4] = target: TEM-1 (class A) serine β-lactamase (Escherichia coli, UniProt P62593); assay: Inhibition of TEM-1 β-lactamase (nitrocefin hydrolysis); format: biochemical; conditions: 4 min incubation of inhibitor and enzyme (0.1 to 1 μM), substrate nitrocefin, 480 nm; error ±10%
# Sequence of TEM-1 (class A) serine β-lactamase (P62593 24-286 limits assumed): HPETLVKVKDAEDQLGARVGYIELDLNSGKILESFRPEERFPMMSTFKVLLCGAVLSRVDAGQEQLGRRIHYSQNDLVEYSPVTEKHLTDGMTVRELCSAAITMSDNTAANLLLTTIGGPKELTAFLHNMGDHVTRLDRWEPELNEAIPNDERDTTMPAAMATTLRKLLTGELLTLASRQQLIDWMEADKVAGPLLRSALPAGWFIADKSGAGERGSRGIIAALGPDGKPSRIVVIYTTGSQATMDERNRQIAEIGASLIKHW
# Method: as §1, with “min.” for “min. The rate is constant throughout this period. Error is ±10%, based on multiple experiments.”
# [5] = system: serine and metallo-β-lactamases; assay: Inhibition of serine and metallo-β-lactamases, summary in words; format: biochemical; conditions: summary of Table 1 in words
# Method: as §1, with “min.” for “min. The rate is constant throughout this period. Error is ±10%, based on multiple experiments.”
# [6] = 4 min incubation of inhibitor and enzyme (0.1 to 1 μM), substrate nitrocefin, 480 nm, error ±10%, read-out: Inhibition IC50, P99 (Class C) (Serine)
# [7] = 4 min incubation of inhibitor and enzyme (0.1 to 1 μM), substrate nitrocefin, 480 nm, error ±10%, read-out: Inhibition IC50, L1 (Class B) (Metallo)
# [8] = Inhibition IC50, P99 (Class C) (Serine), 4 min incubation of inhibitor and enzyme (0.1 to 1 μM), substrate nitrocefin, 480 nm, error ±10%
# [9] = read-out: Inhibition IC50, BC1 (Class B) (Metallo), 4 min incubation of inhibitor and enzyme (0.1 to 1 μM), substrate nitrocefin, 480 nm, error ±10%
SMILES,ability to inhibit the class B β-lactamases (class B β-lactamases),IC50 [1] [µM],"IC50 [2, 6] [µM]",IC50 [3] [µM],"IC50 [1, 7] [µM]","IC50 [2, 8] [µM]","IC50 [3, 9] [µM]",IC50 [4] [µM],"IC50 ([1]; read-out: Inhibition IC50, L1 (Class B) (Metallo), 4 min incubation of inhibitor and enzyme (0.1 to 1 μM), substrate nitrocefin, 480 nm, error ±10%) [µM]",broad spectrum inhibitory activity [5],IC50 [2] [µM]
"CC1(C)[C@H](C(=O)O)N2C(=O)C(CO)C2S1(=O)=O (single isomer, unassigned) [Compound 15, Sodium Salt of 6β-(hydroxymethyl)penicillinate-1,1-dioxide, reference compound]","none of the latter, previously known, 6-(hydroxymethyl)penicillinates possess such ability",> 2000,3.9,> 2000,,,,,,,
"CC1(C)S[C@@H]2C(CO)C(=O)N2[C@H]1C(=O)O (single isomer, unassigned) [Compound 16, Sodium Salt of 6β-(hydroxymethyl)penicillinate, reference compound]","none of the latter, previously known, 6-(hydroxymethyl)penicillinates possess such ability",,,,> 2000,409,> 2000,752,,,
"CC1(C)[C@H](C(=O)O)N2C(=O)C(CO)C2S1(=O)=O (single isomer, unassigned) [Compound 27, Sodium Salt of 6α-(hydroxymethyl)penicillinate-1,1-dioxide, reference compound]","none of the latter, previously known, 6-(hydroxymethyl)penicillinates possess such ability",,10,,,,> 2000,,> 2000,,
"CC1(C)S[C@@H]2C(CO)C(=O)N2[C@H]1C(=O)O (single isomer, unassigned) [Compound 28, Sodium Salt of 6α-(hydroxymethyl)penicillinate, reference compound]","none of the latter, previously known, 6-(hydroxymethyl)penicillinates possess such ability",> 2000,,> 2000,,96.2,,275,,,
"CC1(C)S[C@@H]2C(CS)C(=O)N2[C@H]1C(=O)[O-].[Na+] (stereo partly drawn) [Compound 9, Sodium Salt of 6β-(mercaptomethyl)penicillanic acid]",possess the ability to inhibit the class B β-lactamases,,0.1,12.3,72.2,,,601,,,
"CC1(C)[C@H](C(=O)[O-])N2C(=O)[C@@H](CS)[C@H]2S1(=O)=O.[Na+] [Compound 13, Sodium Salt of 6β-(mercaptomethyl)penicallin acid 1,1-dioxide]",possess the ability to inhibit the class B β-lactamases,,,64,0.13,10.5,,6.8,,excellent broad spectrum inhibitory activity,
"CC1(C)S[C@@H]2[C@@H](CS)C(=O)N2[C@H]1C(=O)[O-].[Na+] [Compound 21, Sodium Salt of 6α-(mercaptomethyl)penicillinate]",possess the ability to inhibit the class B β-lactamases,,3.75,7.6,81.4,,,648,,,
"CC1(C)[C@H](C(=O)[O-])N2C(=O)[C@H](CS)[C@H]2S1(=O)=O.[Na+] [Compound 25, Sodium Salt of 6α-(mercaptomethyl)penicallin acid 1,1-dioxide]",possess the ability to inhibit the class B β-lactamases,,,770,0.82,,,51.7,,,7.5
C[C@]1(Cn2ccnn2)[C@H](C(=O)O)N2C(=O)C[C@H]2S1(=O)=O [Tazobactam],,,,> 2000,> 2000,,,,,,
